Values quoted from earlier work in patent US20230398069A1, “ETOPOSIDE TONIRIBATE FORMULATION” (CELLACT PHARMA GMBH, priority 2020, published 2023).

Details: API

- solubility in water: poorly soluble in water
- stability at acidic and basic pH: unstable at acidic and basic pH
SMILES: COc1cc([C@@H]2c3cc4c(cc3[C@@H](O[C@@H]3O[C@@H]5CO[C@@H](C)O[C@H]5[C@@H](O)[C@H]3O)[C@H]3COC(=O)[C@H]23)OCO4)cc(OC)c1OC(=O)OCC1COC(C)(C)O1 (some centres unmarked) [Etoposide toniribate]
